Measured values as given in paper PMC9323974, “Palladium(II) Complexes of Substituted Salicylaldehydes: Synthesis, Characterization and Investigation of Their Biological Profile” (Pharmaceuticals, 2022).
“And” between values parts separate entries of the source, which are not always exact repeats. Equal entries are not always repeated. Where two headings read alike, the source gives them in different places.

Experiments:
[1] = system: Bacillus subtilis ATCC 6633; experiment: MIC determination; assay type: cell-based; conditions: for MIC: read-out: MIC B. subtilis
Description: (§1) S2 Antibacterial activity
(§2) The antimicrobial activity of the compounds was evaluated by determining their respective MIC values towards two Gram–(–) (Escherichia coli NCTC 29212 (E. coli) and Xanthomonas campestris ATCC 1395 (X. campestris)) and two Gram–(+) (Staphylococcus aureus ATCC 6538 (S. aureus) and Bacillus subtilis ATCC 6633 (B. subtilis)) bacterial species. Cultures of these microbial strains were grown on a rich selective agar medium and stored at 4°C. The selective media used were Nutrient Agar or Broth for B. subtilis and S. aureus, Yeast Mold Agar or Broth for X. campestris and Luria Agar or Broth for E. coli. Cells picked from the surface of the stored cultures were used to initiate liquid pre–cultures of the same selective medium at an initial turbidity of roughly 1 McFarland unit. Pre–cultures were incubated for 24 h in a rotary shaking incubator and subsequently they were used to inoculate the test cultures used for the determination of MIC at an initial turbidity of 0.5 McFarland units. The test cultures consisted of Mueller –Hinton broth (Deben Diagnostics Ltd) containing different concentrations of the compounds.
(§3) Different concentrations were achieved as follows: the compounds were freshly dissolved in DMSO to a concentration of 1 mg mL–1 and they were diluted with DMSO, using the method of progressive double dilution. Therefore, working solutions with decreasing concentrations of the compounds under investigation were achieved. The working solutions were subsequently diluted to the final desired concentration by addition to the growth medium at a proportion of 2:98. MIC values were determined as the lowest concentrations of the tested compounds that inhibited visible growth of each respective organism after a 24 h incubation [ S3]. Bacterial growth was determined by measuring the turbidity of appropriately diluted cultures at 600 nm with reference to equally diluted sterile growth medium and the inhibition achieved was calculated by comparing the turbidity of each culture to the average of the turbidity of three non–inhibited cultures. All test cultures were grown in triplicates and for the determination of MIC, growth had to be inhibited in at least two cultures of the triplicate. Incubation temperature at all stages was 37°C except for X. campestris that was cultivated at 28°C [S4].

[2] = system: Escherichia coli NCTC 29212; experiment: MIC determination; assay type: cell-based; conditions: for MIC: read-out: MIC E. coli
Description: as §1, §2, §3

[3] = system: Staphylococcus aureus ATCC 6538; experiment: MIC determination; assay type: cell-based; conditions: for MIC: read-out: MIC S. aureus
Description: as §1, §2, §3

[4] = system: Xanthomonas campestris ATCC 1395; experiment: MIC determination; assay type: cell-based; conditions: for MIC: Xanthomonas campestris, ATCC1395, 24 h, read-out: MIC X. campestris; for MIC X. campestris: 24 h
Description: as §1, §2, §3

EB-DNA adduct (CT DNA) = experiment: EB-displacement from EB-DNA (fluorescence); assay type: binding, calf; conditions: for ΔΙ/Ι0 (%) EB-DNA fluorescence quenching: [EB] = 20 μM, [DNA] = 26 μM; for kq (EB-DNA quenching constant): τo = 23 ns; for EB-DNA relative fluorescence emission intensity, % of the initial: λemission = 592 nm, final value
Description: page 8: […] spectroscopy, viscosity measurements and fluorescence emission spectroscopy studies. […] UV-vis spectroscopy was used for the evaluation of the interaction of the compounds with CT DNA, and specifically the possible binding modes of the compounds to CT DNA. Control experiments with DMSO were performed and no changes in the spectra of CT DNA were observed. In order to determine the binding mode, the UV-vis spectra of the compounds were […] concentrations of CT DNA for diverse r (r = [complex]/[DNA]) values. Effective use of the changes […] compounds were calculated by the Wolfe-[…] equation (eq. […] εf) versus [DNA]: (eq. S1) where [DNA] = the concentration of DNA in base pairs, ε f= the extinction coefficient for the free compound at the corresponding λmax, εA = Aobsd/[compound] and εb= the extinction coefficient for the compound in the fully bound form. K b is given by the ratio of slope to the y intercept in plots [DNA]/(εA-εf) versus [DNA]. S3.2 CT DNA-binding studies by viscosity measurements […] presence of increasing amounts of the compounds. The experiments were executed at room temperature and the measurements are devised in a plot (η/η 0)1/3 versus r, where η = the viscosity of DNA in the presence of the compound, and η0 = the viscosity of neat DNA in buffer solution. […] In order to determine and confirm the DNA-binding mode of the compounds, a competitive study with EB as an intercalating marker is performed by fluorescence emission spectroscopy. Therefore, the EB-displacing ability of the compounds from its EB-DNA conjugate was examined. […] solution (150 mM NaCl and 15 mM trisodium citrate at pH 7.0). The potential intercalation of the compounds between the DNA-bases was studied by the addition of a certain amount of the 8 (1 picture or pasted object on this page, not shown here) page 9: compound solution into the EB-DNA adduct solution. The influence of the compounds on the EB- DNA solution was monitored through the changes of the fluorescence emission spectra at excitation wavelength (λex) at 540 nm [S6]. […] Bearing that in mind, the observed quenching of the EB-DNA solution is evidently associated to the displacement of EB from its EB-DNA adduct. The quenching efficiency (KSV) for each compound was assessed according to the Stern - Volmer equation (eq. S2) [S6]: (eq. S2) where I0 and I = the fluorescence emission intensities of EB-DNA in the absence and presence of the quencher, respectively, [Q] = the concentration of the quencher (i.e. compounds). K SV is obtained from the Stern-Volmer plots by the slope of the diagram I0/I versus [Q]. Taking τ0 = 23 ns […] M-1s-1) of the compounds can be determined according to e quation S3: KSV = kqτo (eq. S3) 9 (1 picture or pasted object on this page, not shown here)

[5] = Bacillus subtilis, ATCC6633, 24 h
[6] = Escherichia coli, NCTC29212, 24 h
[7] = Staphylococcus aureus, ATCC6538, 24 h

Row | SMILES | MIC [1, 5] | MIC [2, 6] | MIC [3, 7] | MIC [4] | KSV (Stern–Volmer constant), EB-DNA (EB-DNA adduct (CT DNA)) | ΔΙ/Ι0 (%) EB-DNA fluorescence quenching (EB-DNA adduct (CT DNA)) [%] | kq (EB-DNA quenching constant) (EB-DNA adduct (CT DNA)) | MIC B. subtilis ([1]; 24 h) [µg/mL] | MIC ([1]; 24 h, value in parentheses) [µM] | MIC E. coli ([2]; 24 h) [µg/mL] | MIC ([2]; 24 h, value in parentheses) [µM] | MIC S. aureus ([3]; 24 h) [µg/mL] | MIC ([3]; 24 h, value in parentheses) [µM] | MIC X. campestris [4] [µg/mL] | MIC X. campestris ([4]; value in parentheses) [µM] | EB-DNA relative fluorescence emission intensity, % of the initial (EB-DNA adduct (CT DNA)) [%]
1 | CCN(CC)c1ccc(C=O)c(O)c1 [4-Et2N-saloH, 4-diethylamino-salicylaldehyde, reference compound] | > 200 µg/mL and > 1040 µM | > 200 µg/mL and > 1040 µM | > 200 µg/mL and > 1040 µM | > 200 µg/mL and > 1040 µM | 2.89 (±0.07) × 10^4 M^−1 | 43.4 | 1.25 (±0.03) × 10^12 M^−1s^−1 | – | – | – | – | – | – | – | – | –
2 | COc1ccc(C=O)c(O)c1 [4-OMe-saloH, 4-methoxy-salicylaldehyde, reference compound] | > 200 µg/mL and > 1310 µM | > 200 µg/mL and > 1310 µM | > 200 µg/mL and > 1310 µM | > 200 µg/mL and > 1310 µM | – | – | – | – | – | – | – | – | – | – | – | –
3 | O=Cc1cc(F)ccc1O [5-F-saloH, 5-fluoro-salicylaldehyde, reference compound] | 200 µg/mL and 1430 µM | 200 µg/mL and 1430 µM | 200 µg/mL and 1430 µM | 200 µg/mL and 1430 µM | 3.79 (±0.11) × 10^4 M^−1 | 51.3 | 1.73 (±0.05) × 10^12 M^−1s^−1 | – | – | – | – | – | – | – | – | –
4 | CCN(CC)c1ccc(C=O)c([O][Pd][O]c2cc(N(CC)CC)ccc2C=O)c1 [Complex 1, [Pd(4-Et2N-salo)2]] | – | – | – | – | 1.03 (±0.02) × 10^5 M^−1 | 51.2 | 4.49 (±0.09) × 10^12 M^−1s^−1 | 100 | 204 | 100 | 204 | 100 | 204 | 200 | 407 | 48.8
5 | O=Cc1cc(Br)cc(Br)c1[O][Pd][O]c1c(Br)cc(Br)cc1C=O [Complex 2, [Pd(3,5-diBr-salo)2]] | – | – | – | – | 1.00 (±0.02) × 10^5 M^−1 | 64.8 | 4.35 (±0.10) × 10^12 M^−1s^−1 | 25 | 38 | 25 | 38 | 25 | 38 | 25 | 38 | 35.2
6 | O=Cc1cc(Cl)cc(Cl)c1[O-].O=Cc1cc(Cl)cc(Cl)c1[O-].[Pd+2] [Complex 3, [Pd(3,5-diCl-salo)2]] | – | – | – | – | 7.53 (±0.18) × 10^4 M^−1 | 60.6 | 3.27 (±0.08) × 10^12 M^−1s^−1 | 50 | 103 | 25 | 51 | 25 | 51 | 25 | 51 | 39.4
7 | O=Cc1cc(F)ccc1[O-].O=Cc1cc(F)ccc1[O-].[Pd+2] [Complex 4, [Pd(5-F-salo)2]] | – | – | – | – | 5.71 (±0.10) × 10^4 M^−1 | 51.4 | 2.48 (±0.04) × 10^12 M^−1s^−1 | 100 | 259 | 100 | 259 | 100 | 259 | 100 | 259 | 48.6
8 | COc1ccc(C=O)c([O-])c1.COc1ccc(C=O)c([O-])c1.[Pd+2] [Complex 5, [Pd(4-OMe-salo)2]] | – | – | – | – | 4.26 (±0.08) × 10^4 M^−1 | 44.2 | 1.85 (±0.04) × 10^12 M^−1s^−1 | 100 | 245 | 100 | 245 | 100 | 245 | 100 | 245 | 55.8
